Several values for one entry are separate records, joined by “and”; a condition that tells them apart may be missing. Identical values can stand only once. Toxic doses and inconclusive results are not listed.
System: B6C3F1 mice, B16 melanoma ip, median survival T/C
Assay: NCI In Vivo Anticancer Drug Screen. Data for tumor model B16 Melanoma (intraperitoneal) in B6C3F1 mice
Conditions: endpoint: median survival time, higher = longer survival
In short: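 Antitumor effect was judged in mice with transplanted tumors by dividing the treated group's survival measure by that of vehicle controls.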

[1] = dose: 12.5 mg/kg/injection, schedule: Q01DX009 (ip), vehicle: saline
[2] = dose: 50.0 mg/kg/injection, schedule: Q01DX009 (ip), vehicle: saline
[3] = dose: 6.25 mg/kg/injection, schedule: Q01DX009 (ip), vehicle: saline

## O=P1(N(CCCl)CCCl)NCCCO1 (configuration not stated)
[1]
  T/C: 121 % of control
dose: 18.75 mg/kg/injection, schedule: Q01DX005 (ip), vehicle: saline
  T/C: 104 % of control
dose: 18.75 mg/kg/injection, schedule: Q01DX005 (iv), vehicle: saline
  T/C: 111 % of control
dose: 25.0 mg/kg/injection, schedule: Q01DX001 (ip), vehicle: saline
  T/C: 108 % of control and 103 % of control
dose: 37.5 mg/kg/injection, schedule: Q01DX001 (ip), vehicle: saline
  T/C: 106 % of control
dose: 37.5 mg/kg/injection, schedule: Q01DX001 (iv), vehicle: saline
  T/C: 104 % of control
dose: 37.5 mg/kg/injection, schedule: Q01DX005 (ip), vehicle: saline
  T/C: 121 % of control
dose: 50.0 mg/kg/injection, schedule: Q01DX001 (ip), vehicle: saline
  T/C: 111 % of control and 103 % of control
[2]
  T/C: 154 % of control
dose: 75.0 mg/kg/injection, schedule: Q01DX001 (ip), vehicle: saline
  T/C: 116 % of control
dose: 75.0 mg/kg/injection, schedule: Q01DX001 (iv), vehicle: saline
  T/C: 114 % of control
dose: 75.0 mg/kg/injection, schedule: Q01DX005 (iv), vehicle: saline
  T/C: 166 % of control
dose: 150.0 mg/kg/injection, schedule: Q01DX005 (ip), vehicle: saline
  T/C: 190 % of control
dose: 200.0 mg/kg/injection, schedule: Q01DX001 (ip), vehicle: saline
  T/C: 157 % of control and 161 % of control
dose: 300.0 mg/kg/injection, schedule: Q01DX001 (ip), vehicle: saline
  T/C: 185 % of control
dose: 300.0 mg/kg/injection, schedule: Q01DX001 (iv), vehicle: saline
  T/C: 166 % of control

## C=Cc1cnc([N+](=O)[O-])n1C
dose: 12.5 mg/kg/injection, schedule: Q01DX009 (ip), vehicle: Klucel (hydroxypropylcellulose) (HPC)
  T/C: 99 % of control and 106 % of control
dose: 25.0 mg/kg/injection, schedule: Q01DX009 (ip), vehicle: Klucel (hydroxypropylcellulose) (HPC)
  T/C: 103 % of control and 107 % of control
dose: 50.0 mg/kg/injection, schedule: Q01DX009 (ip), vehicle: Klucel (hydroxypropylcellulose) (HPC)
  T/C: 100 % of control and 105 % of control
dose: 100.0 mg/kg/injection, schedule: Q01DX009 (ip), vehicle: Klucel (hydroxypropylcellulose) (HPC)
  T/C: 109 % of control and 106 % of control
dose: 200.0 mg/kg/injection, schedule: Q01DX009 (ip), vehicle: Klucel (hydroxypropylcellulose) (HPC)
  T/C: 110 % of control and 100 % of control

## CC(C)CCCCCCCCCCCCC(=O)NCC(=O)NC1C(C)OC(Nc2ncnc3nc[nH]c23)C(O)C1O (configuration not stated)
dose: 0.25 mg/kg/injection, schedule: Q01DX008 (ip), vehicle: distilled water + Tween-80
  T/C: 95 % of control
dose: 0.25 mg/kg/injection, schedule: Q01DX009 (ip), vehicle: distilled water + Tween-80
  T/C: 112 % of control
dose: 0.5 mg/kg/injection, schedule: Q01DX008 (ip), vehicle: distilled water + Tween-80
  T/C: 95 % of control
dose: 0.5 mg/kg/injection, schedule: Q01DX009 (ip), vehicle: distilled water + Tween-80
  T/C: 112 % of control
dose: 1.0 mg/kg/injection, schedule: Q01DX008 (ip), vehicle: distilled water + Tween-80
  T/C: 98 % of control
dose: 2.0 mg/kg/injection, schedule: Q01DX008 (ip), vehicle: distilled water + Tween-80
  T/C: 111 % of control

## ClCCCN1CCN(CCCCl)CC1
dose: 6.25 mg/kg/injection, schedule: Q01DX009 (ip), vehicle: distilled water + alcohol
  T/C: 109 % of control and 98 % of control
dose: 12.5 mg/kg/injection, schedule: Q01DX009 (ip), vehicle: distilled water + alcohol
  T/C: 102 % of control and 104 % of control
dose: 25.0 mg/kg/injection, schedule: Q01DX009 (ip), vehicle: distilled water + alcohol
  T/C: 108 % of control and 105 % of control
dose: 50.0 mg/kg/injection, schedule: Q01DX009 (ip), vehicle: distilled water + alcohol
  T/C: 118 % of control and 107 % of control
dose: 100.0 mg/kg/injection, schedule: Q01DX009 (ip), vehicle: distilled water + alcohol
  T/C: 115 % of control and 118 % of control

## CN(C)N=Nc1cccc2c1N(C)c1ccc(Cl)cc1S2
dose: 6.25 mg/kg/injection, schedule: Q01DX009 (ip), vehicle: other
  T/C: 109 % of control
dose: 12.5 mg/kg/injection, schedule: Q01DX009 (ip), vehicle: other
  T/C: 108 % of control
dose: 25.0 mg/kg/injection, schedule: Q01DX009 (ip), vehicle: other
  T/C: 103 % of control
dose: 50.0 mg/kg/injection, schedule: Q01DX009 (ip), vehicle: other
  T/C: 104 % of control
dose: 100.0 mg/kg/injection, schedule: Q01DX009 (ip), vehicle: other
  T/C: 89 % of control

## C/C=C(\C)c1cc(=O)c2c(C)cc3c(c2o1)C(=O)c1c(O)c(C2CC(C)(N(C)C)C(O)C(C)O2)cc(C2CC(N(C)C)C(O)C(C)O2)c1C3=O (configuration not stated)
dose: 31.25 micrograms/kg/injection, schedule: Q01DX009 (ip), vehicle: saline
  T/C: 111 % of control
dose: 62.5 micrograms/kg/injection, schedule: Q01DX009 (ip), vehicle: saline
  T/C: 114 % of control
dose: 156.25 micrograms/kg/injection, schedule: Q01DX009 (ip), vehicle: saline
  T/C: 176 % of control
dose: 1250.0 micrograms/kg/injection, schedule: Q01DX009 (ip), vehicle: saline
  T/C: 93 % of control

## CC(=O)N(C)c1ccc(Nc2cc(C)[nH]c3ccc4ncnc4c23)cc1
[3]
  T/C: 122 % of control
[1]
  T/C: 171 % of control and 178 % of control
dose: 25.0 mg/kg/injection, schedule: Q01DX009 (ip), vehicle: saline
  T/C: 177 % of control and 198 % of control
[2]
  T/C: 177 % of control and 184 % of control

## O=[N+]([O-])c1c(O)c(CNCCCO)cc(CNCCCO)c1O
[3]
  T/C: 102 % of control
[1]
  T/C: 102 % of control
